Measurements as given in ChEMBL document CHEMBL2346622, “Novel tacrine-related drugs as potential candidates for the treatment of Alzheimer's disease” (Bioorg Med Chem Lett, 2013).

Tests used:
Acetylcholinesterase = target: T1, Acetylcholinesterase (Rattus norvegicus, UniProt P37136); test: (§1) Inhibition of rat brain acetylcholinesterase
T1 sequence (P37136 whole entry): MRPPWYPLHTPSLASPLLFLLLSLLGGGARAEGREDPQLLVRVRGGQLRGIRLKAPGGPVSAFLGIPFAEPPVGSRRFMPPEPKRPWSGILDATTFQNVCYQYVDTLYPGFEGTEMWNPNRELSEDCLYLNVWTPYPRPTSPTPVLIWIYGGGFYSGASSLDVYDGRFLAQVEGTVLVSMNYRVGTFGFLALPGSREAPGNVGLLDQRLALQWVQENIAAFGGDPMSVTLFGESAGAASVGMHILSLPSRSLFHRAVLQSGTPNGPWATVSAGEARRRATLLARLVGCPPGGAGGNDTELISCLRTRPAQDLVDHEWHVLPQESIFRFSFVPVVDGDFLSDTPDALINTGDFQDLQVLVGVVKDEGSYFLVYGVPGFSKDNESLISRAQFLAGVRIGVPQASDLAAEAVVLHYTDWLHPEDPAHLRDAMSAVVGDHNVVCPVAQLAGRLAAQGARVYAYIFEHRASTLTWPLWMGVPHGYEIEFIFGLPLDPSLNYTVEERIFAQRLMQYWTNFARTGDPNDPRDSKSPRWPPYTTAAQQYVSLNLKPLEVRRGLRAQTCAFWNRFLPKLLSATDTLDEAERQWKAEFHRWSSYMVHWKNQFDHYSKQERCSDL

[1] = target: T2, Acetylcholinesterase (Rattus norvegicus) (UniProt P37136); test: as §1
T2 sequence (whole entry): T1 sequence (P37136 whole entry)

c1ccc2c(NCCCCCCCN3CCCCC3)c3c(nc2c1)CCCC3
IC50 (Acetylcholinesterase): 20.4 nM | Imax [1]: 95%
